Reference: article PMC8279479, “Application of Alanine Scanning to Determination of Amino Acids Essential for Peptide Adsorption at the Solid/Solution Interface and Binding to the Receptor: Surface-Enhanced Raman/Infrared Spectroscopy versus Bioactivity Assays” (Journal of Medicinal Chemistry, 2021)
Where no end group is shown, it is not given here.

What was measured:
[1] = molecular target: human BB1 receptor (Homo sapiens, UniProt P28336); test: Intracellular inositol monophosphate (IP-One HTRF) assay, HEK-293 cells overexpressing BB1 receptor; assay type: cell-based; settings: BB1R HEK-293
human BB1 receptor, sequence (P28336 whole entry): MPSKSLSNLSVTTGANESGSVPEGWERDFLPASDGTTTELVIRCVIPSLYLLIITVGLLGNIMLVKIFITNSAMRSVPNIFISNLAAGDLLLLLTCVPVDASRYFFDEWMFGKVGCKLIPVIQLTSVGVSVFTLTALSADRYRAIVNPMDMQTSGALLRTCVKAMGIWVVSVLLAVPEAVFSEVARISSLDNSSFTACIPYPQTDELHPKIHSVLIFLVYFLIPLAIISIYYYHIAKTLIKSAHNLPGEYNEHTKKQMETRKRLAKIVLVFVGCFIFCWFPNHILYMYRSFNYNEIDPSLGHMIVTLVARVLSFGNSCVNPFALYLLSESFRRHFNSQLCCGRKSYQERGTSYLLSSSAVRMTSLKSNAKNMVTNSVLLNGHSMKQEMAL
Protocol: (§1) Additionally, reference compounds BIM23042 and PD176252 (both from Tocris) antagonists of BB1 and BB2 receptors were used in a concentration of 10 μM (Figure 7).
(§2) The human BB1 receptor NM_002511.3 (GenScript) and BB2 receptor NM_002091 (cDNA Resource Center) sequences in pcDNA 3.1 + plasmids were introduced into the host cell by lipofection (Lipofectamine Reagent 3000, Thermo Fisher Scientific). Then, the transfected cells were selected with G-418 antibiotic at a dose of 500 μg/mL. Cells were grown under standard cell culture conditions (37 °C, 5% CO2) in DMEM supplemented with 10% FBS and Glutamax.
(§3) Receptor activity was determined by measuring the intracellular inositol monophosphate concentration using a homogeneous time-resolved fluorescence IP-one kit from Cis-bio, according to the manual. Briefly, 24 h before assay, cells were grown in an FBS-free DMEM medium. Then, the cells were scraped and centrifuged. The cell pellet was suspended in Hanks-HEPES (130 mM NaCl, 5.4 mM KCl, 1.8 mM CaCl2, 0.8 mM MgSO4, 0.9 mM NaH2PO4, 20 mM HEPES, LiCl 50 mM, and 3.25 mM glucose; pH 7.4). […] The cell suspension was then mixed with 5 μL of the IP1-acceptor conjugate and 5 μL of the anti-IP1-donor conjugate. After 1 h incubation at RT, fluorescence was read at 620 and 665 nm (Tecan; Infinite M1000). Results were calculated as the ratio (665 nm/620 nm) multiplied by 10^4. The signal was inversely proportional to the concentration of IP1 in the samples. Each sample was prepared in triplicate. Data were analyzed using GraphPad Prism version 5.04 for Windows (GraphPad software).

[2] = molecular target: human BB2 receptor (Homo sapiens, UniProt P30550); test: Intracellular inositol monophosphate (IP-One HTRF) assay, HEK-293 cells overexpressing BB2 receptor; assay type: cell-based; settings: BB2R HEK-293
human BB2 receptor, sequence (P30550 whole entry): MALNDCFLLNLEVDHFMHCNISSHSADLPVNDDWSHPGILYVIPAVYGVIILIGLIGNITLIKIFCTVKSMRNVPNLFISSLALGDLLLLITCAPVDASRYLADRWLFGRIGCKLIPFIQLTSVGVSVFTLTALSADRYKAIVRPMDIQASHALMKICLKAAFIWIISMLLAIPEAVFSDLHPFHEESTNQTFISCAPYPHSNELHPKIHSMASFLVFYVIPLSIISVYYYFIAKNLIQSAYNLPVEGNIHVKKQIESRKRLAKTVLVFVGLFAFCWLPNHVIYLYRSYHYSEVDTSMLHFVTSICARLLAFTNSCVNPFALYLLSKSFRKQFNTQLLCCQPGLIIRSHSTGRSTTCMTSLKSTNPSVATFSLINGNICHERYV
Protocol: as §1, §2, §3

Agonist effect of compound alone on intracellular IP1 ([1]; compound alone 25 μM, 1 h, 37 °C (Figure 7A)) | Agonist effect of compound alone on intracellular IP1 ([2]; compound alone 25 μM, 1 h, 37 °C (Figure 7B)) | Compound | Effect of reference antagonist alone on basal receptor activity (IP1) ([1]; reference compound 10 μM alone (Figure 7A)) | Effect of reference antagonist on IP1 concentration in the presence of agonist ([1]; reference compound 10 μM with BN 150 nM (Figure 7A)) | Effect of reference antagonist alone on basal receptor activity (IP1) ([2]; reference compound 10 μM alone (Figure 7B)) | Effect of reference antagonist on IP1 concentration in the presence of agonist ([2]; reference compound 10 μM with BN 150 nM (Figure 7B))
 |  | COc1ccc(C2(CNC(=O)[C@](C)(Cc3c[nH]c4ccccc34)NC(=O)Nc3ccc([N+](=O)[O-])cc3)CCCCC2)nc1 [PD176252] | inhibited the basal activity | downregulated IP1 concentration to control level | inhibited the basal activity | significantly reduced its level
little change in the activity | little change in the activity | Asn-Gln-Ala-Ala-Val-Gly-His-Leu-Met-NH2 (NQAAVGHLM-NH2) [[Ala^3]BN^6–14] |  |  |  | 
